How the values were obtained:
Experiment in all cases: DSF Tm panel
Type in all cases: binding
Settings in all cases: 10 μM compound
CDKL1A = target: T1, CDKL1A (Homo sapiens, UniProt Q00532)
T1 construct: purchased in-house DSF kinase panel (SGC-style construct names; the trailing letter is the construct ID)

CAMK2BA = target: T2, CAMK2BA (Homo sapiens, UniProt Q13554)
T2 construct: purchased in-house DSF kinase panel (SGC-style construct names; the trailing letter is the construct ID)

DYRK2A = target: T3, DYRK2A (Homo sapiens, UniProt Q92630)
T3 construct: purchased in-house DSF kinase panel (SGC-style construct names; the trailing letter is the construct ID)
T3 sequence (Q92630 1-601): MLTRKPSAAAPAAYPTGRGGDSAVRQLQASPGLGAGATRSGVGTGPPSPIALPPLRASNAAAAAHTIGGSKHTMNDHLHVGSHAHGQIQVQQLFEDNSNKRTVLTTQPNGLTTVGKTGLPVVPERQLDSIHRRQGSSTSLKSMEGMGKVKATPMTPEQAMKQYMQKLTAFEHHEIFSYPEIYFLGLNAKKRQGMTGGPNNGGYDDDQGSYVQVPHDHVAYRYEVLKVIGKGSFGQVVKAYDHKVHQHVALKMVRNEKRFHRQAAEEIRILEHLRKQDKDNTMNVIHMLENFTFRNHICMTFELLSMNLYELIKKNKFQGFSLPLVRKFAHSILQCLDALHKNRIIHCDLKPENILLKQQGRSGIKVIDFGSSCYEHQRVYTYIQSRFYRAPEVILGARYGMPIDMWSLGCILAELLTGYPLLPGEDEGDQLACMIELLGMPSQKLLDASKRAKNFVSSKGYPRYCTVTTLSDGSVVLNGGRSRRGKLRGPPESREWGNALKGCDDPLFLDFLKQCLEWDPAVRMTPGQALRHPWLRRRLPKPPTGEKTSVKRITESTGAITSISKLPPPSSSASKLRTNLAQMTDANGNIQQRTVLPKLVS

EPHB3A = target: T4, EPHB3A (Homo sapiens, UniProt P54753)
T4 construct: purchased in-house DSF kinase panel (SGC-style construct names; the trailing letter is the construct ID)
T4 sequence (P54753 34-998): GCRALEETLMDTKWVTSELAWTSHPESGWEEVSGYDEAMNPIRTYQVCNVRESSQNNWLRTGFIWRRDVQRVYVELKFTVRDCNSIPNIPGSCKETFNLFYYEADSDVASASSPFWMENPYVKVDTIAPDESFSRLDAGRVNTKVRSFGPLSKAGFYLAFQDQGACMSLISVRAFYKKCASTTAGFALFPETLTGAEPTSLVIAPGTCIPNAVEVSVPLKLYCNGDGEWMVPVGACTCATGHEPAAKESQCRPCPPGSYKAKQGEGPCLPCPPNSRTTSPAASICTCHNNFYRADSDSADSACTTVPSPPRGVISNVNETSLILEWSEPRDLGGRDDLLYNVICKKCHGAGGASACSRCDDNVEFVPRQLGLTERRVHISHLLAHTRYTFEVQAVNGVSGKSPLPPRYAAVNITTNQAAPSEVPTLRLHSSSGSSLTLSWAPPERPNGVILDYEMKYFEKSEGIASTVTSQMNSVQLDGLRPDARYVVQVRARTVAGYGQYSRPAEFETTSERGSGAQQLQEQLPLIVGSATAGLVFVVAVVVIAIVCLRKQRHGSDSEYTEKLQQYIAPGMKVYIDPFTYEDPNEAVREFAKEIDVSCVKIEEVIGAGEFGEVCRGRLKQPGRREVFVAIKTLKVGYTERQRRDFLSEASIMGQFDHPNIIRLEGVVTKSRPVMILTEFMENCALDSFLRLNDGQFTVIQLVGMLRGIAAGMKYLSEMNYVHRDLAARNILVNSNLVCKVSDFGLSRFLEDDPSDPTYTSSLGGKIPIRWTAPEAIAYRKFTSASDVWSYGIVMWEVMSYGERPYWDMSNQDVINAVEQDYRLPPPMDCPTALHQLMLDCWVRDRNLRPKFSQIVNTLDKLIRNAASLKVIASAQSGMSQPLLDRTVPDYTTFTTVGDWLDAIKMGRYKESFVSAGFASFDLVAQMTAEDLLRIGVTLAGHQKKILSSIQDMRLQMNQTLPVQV

PAK4A = target: T5, PAK4A (Homo sapiens, UniProt O96013)
T5 construct: purchased in-house DSF kinase panel (SGC-style construct names; the trailing letter is the construct ID)
Description: (§1) The synthesized urea-based derivatives were evaluated in a panel of kinases by differential scanning fluorescence (DSF) to investigate their selectivity profile. A positive ΔT m in the DSF assay indicates stabilization of the protein upon ligand binding in comparison to its apo state, with higher thermal shifts generally correlating with stronger binding. For this purpose, we used our internal kinase selectivity panel (∼90 kinases) along with staurosporine as a positive control. […] This was also reflected in the overall low selectivity score (S) throughout the series, which is determined by the ratio between the number of kinases that are stabilized above 5 °C and the total number of kinases tested (Figure ). Motivated by these findings, we further validated the entire series by orthogonal binding and activity assays to determine the in vitro and cellular potency and selectivity of the developed series in comparison to the selected reference compounds. […]
(§2) was performed as previously described.[1,2] Briefly, recombinant protein kinase domains at a concentration of 2 μM were mixed with 10 μM compound in a buffer containing 20 mM HEPES, […]
(§3) probe (1 µl per mL). Subsequently, temperature-dependent protein unfolding profiles were […]
(§4) emission filters were set to 465 nm and 590 nm, respectively. The temperature was raised with a step rate of 3 °C per minute. […]
(§5) inflection point of the transition curve. […]
(§6) previously.[3] In brief, STK10, STK3, STK4 and SLK were obtained as plasmids cloned in […]
(§7) Plasmids were transfected into
(§8) KD concentration taken from TracerDB (tracerdb.org)[4] were pipetted into white 384-well

PAK1A = target: T6, PAK1A (Homo sapiens, UniProt Q13153)
T6 construct: purchased in-house DSF kinase panel (SGC-style construct names; the trailing letter is the construct ID)
Description: as §1, §2, §3, §4, §5, §6, §7, §8

CHEK2A = target: T7, CHEK2A (Homo sapiens, UniProt O96017)
T7 construct: purchased in-house DSF kinase panel (SGC-style construct names; the trailing letter is the construct ID)
Description: as §1, §2, §3, §4, §5, §6, §7, §8

MAP2K1A = target: T8, MAP2K1A (Homo sapiens, UniProt Q02750)
T8 construct: purchased in-house DSF kinase panel (SGC-style construct names; the trailing letter is the construct ID)
Description: as §1, §2, §3, §4, §5, §6, §7, §8

CAMK1DA = target: T9, CAMK1DA (Homo sapiens, UniProt Q8IU85)
T9 construct: purchased in-house DSF kinase panel (SGC-style construct names; the trailing letter is the construct ID)
Description: as §1, §2, §3, §4, §5, §6, §7, §8

EPHA7A = target: T10, EPHA7A (Homo sapiens, UniProt Q15375)
T10 construct: purchased in-house DSF kinase panel (SGC-style construct names; the trailing letter is the construct ID)

CAMKK2B = target: T11, CAMKK2B (Homo sapiens, UniProt Q96RR4)
T11 construct: purchased in-house DSF kinase panel (SGC-style construct names; the trailing letter is the construct ID)
T11 sequence (Q96RR4 161-449): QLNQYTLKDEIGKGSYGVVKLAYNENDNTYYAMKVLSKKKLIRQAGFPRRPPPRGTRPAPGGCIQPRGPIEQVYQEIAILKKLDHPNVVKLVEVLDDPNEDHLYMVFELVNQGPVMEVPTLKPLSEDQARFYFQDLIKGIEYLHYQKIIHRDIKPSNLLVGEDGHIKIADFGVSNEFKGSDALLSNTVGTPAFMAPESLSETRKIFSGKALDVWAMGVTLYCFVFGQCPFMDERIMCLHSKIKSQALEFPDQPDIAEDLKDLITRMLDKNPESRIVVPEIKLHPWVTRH

T6 sequence (Q13153 249-545): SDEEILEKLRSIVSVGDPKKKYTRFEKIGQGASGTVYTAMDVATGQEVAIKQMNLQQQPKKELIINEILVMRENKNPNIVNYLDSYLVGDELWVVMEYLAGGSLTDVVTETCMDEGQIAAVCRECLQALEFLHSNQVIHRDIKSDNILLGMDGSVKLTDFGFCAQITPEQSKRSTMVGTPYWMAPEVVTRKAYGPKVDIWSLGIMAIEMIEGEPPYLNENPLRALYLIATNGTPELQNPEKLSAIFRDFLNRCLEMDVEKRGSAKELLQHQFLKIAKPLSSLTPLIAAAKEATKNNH
T8 sequence (Q02750 68-361): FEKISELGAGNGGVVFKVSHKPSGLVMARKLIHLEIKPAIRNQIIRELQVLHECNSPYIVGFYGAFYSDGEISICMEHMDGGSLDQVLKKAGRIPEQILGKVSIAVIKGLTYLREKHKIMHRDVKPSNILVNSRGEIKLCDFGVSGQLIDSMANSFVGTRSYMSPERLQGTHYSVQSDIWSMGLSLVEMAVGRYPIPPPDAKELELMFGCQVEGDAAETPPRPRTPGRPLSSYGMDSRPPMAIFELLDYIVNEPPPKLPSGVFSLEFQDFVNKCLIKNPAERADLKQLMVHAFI
T5 sequence (O96013 291-591): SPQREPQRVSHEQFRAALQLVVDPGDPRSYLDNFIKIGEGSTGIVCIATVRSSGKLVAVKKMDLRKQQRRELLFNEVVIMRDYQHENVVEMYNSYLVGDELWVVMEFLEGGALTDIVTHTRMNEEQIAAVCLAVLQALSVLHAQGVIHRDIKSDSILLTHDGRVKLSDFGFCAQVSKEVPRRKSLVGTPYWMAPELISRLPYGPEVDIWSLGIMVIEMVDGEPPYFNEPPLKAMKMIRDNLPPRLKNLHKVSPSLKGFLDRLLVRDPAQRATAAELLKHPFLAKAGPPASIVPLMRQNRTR
T1 sequence (Q00532 1-303): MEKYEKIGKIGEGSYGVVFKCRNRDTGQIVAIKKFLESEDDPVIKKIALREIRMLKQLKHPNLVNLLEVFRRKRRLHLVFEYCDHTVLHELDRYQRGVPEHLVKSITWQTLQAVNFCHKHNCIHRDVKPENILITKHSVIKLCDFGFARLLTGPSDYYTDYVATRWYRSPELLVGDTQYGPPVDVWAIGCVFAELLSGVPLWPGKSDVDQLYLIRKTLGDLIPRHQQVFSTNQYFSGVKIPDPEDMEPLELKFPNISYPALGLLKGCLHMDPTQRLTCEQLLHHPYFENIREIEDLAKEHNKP
T10 sequence (Q15375 590-899): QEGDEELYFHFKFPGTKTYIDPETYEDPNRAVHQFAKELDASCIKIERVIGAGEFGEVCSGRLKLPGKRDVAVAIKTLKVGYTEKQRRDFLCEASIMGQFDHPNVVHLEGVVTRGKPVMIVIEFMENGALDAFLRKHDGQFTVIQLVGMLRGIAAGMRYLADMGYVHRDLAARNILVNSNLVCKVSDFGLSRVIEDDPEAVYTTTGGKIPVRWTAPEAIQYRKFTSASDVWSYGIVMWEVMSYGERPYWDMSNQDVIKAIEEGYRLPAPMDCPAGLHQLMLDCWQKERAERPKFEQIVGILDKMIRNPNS
T2 sequence (Q13554 11-303): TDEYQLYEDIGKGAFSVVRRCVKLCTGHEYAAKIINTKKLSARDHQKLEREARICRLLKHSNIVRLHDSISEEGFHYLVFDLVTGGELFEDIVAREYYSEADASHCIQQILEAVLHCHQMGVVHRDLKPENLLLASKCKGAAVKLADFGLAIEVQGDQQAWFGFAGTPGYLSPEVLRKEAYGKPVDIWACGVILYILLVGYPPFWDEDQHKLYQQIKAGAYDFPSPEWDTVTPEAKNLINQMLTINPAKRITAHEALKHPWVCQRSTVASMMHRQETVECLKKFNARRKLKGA
T7 sequence (O96017 210-531): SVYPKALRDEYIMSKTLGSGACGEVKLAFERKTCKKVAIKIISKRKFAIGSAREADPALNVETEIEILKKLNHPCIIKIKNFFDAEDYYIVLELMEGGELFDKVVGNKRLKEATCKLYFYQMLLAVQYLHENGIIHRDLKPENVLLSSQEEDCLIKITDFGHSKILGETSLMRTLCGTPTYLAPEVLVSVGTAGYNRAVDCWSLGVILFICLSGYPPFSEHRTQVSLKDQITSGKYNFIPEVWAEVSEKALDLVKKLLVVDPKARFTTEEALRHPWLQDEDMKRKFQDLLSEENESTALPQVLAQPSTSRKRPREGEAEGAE
T9 sequence (Q8IU85 whole entry): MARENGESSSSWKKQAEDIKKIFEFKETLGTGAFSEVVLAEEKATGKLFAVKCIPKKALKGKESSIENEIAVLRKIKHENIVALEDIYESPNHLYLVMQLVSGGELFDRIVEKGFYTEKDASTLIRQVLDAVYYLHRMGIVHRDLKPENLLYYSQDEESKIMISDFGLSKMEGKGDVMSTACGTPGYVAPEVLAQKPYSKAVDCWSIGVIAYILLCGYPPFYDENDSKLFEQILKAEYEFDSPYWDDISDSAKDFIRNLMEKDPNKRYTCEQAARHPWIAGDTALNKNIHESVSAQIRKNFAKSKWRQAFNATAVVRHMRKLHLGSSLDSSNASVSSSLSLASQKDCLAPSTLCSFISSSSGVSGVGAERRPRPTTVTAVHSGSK

| ΔTm at 10 µM (CDKL1A) [°C] | ΔTm at 10 µM (CAMK2BA) [°C] | ΔTm at 10 µM (DYRK2A) [°C] | ΔTm at 10 µM (EPHB3A) [°C] | ΔTm at 10 µM (PAK4A) [°C] | ΔTm at 10 µM (PAK1A) [°C] | ΔTm at 10 µM (CHEK2A) [°C] | ΔTm at 10 µM (MAP2K1A) [°C] | ΔTm at 10 µM (CAMK1DA) [°C] | ΔTm at 10 µM (EPHA7A) [°C] | ΔTm at 10 µM (CAMKK2B) [°C] | SMILES |
| --- | --- | --- | --- | --- | --- | --- | --- | --- | --- | --- | --- |
| 0.5 | -0.2 | 0.5 | 0.7 | 1.9 | 1.1 | 8.6 | 0.6 | 1.3 | 2 | 0.7 | Cc1cc(Br)ccc1CNC(=O)Nc1ccc2cc1OCCOCCNc1ccn3ncc-2c3n1 [compound 24] |
| 0.4 | 0.9 | 0.8 | 0.9 | 1.2 | 2 | 5.7 | 0.6 | 2.1 | 1 | 1.9 | Cc1cc(Cl)ccc1CNC(=O)Nc1ccc2cc1OCCOCCNc1ccn3ncc-2c3n1 [compound 23] |
| 0.6 | 0.3 | 1.2 | 1.4 | 2.4 | 1.8 | 7.7 | 1 | 2.1 | 3.5 | 1.8 | O=C(NCc1ccc(C(F)(F)F)cc1)Nc1ccc2cc1OCCOCCNc1ccn3ncc-2c3n1 [compound 28] |
| 0.3 | -0.2 | 3.1 | 0.3 | 1.5 | 0.2 | 5.1 | 0.6 | 0.4 | 1.5 | 2 | COc1cccc(CNC(=O)Nc2ccc3cc2OCCOCCNc2ccn4ncc-3c4n2)c1 [compound 30] |

Reference: PMC12621043, “Un-LOK-ing a New Approach for Conformational Selective Targeting of STK10 (LOK)” (ACS Medicinal Chemistry Letters, 2025)
